In experiment [1] the target is T1, strychnine-insensitive site present on the NMDA receptor (Rattus norvegicus, UniProt P35439).
T1 construct: NMDA receptor of rat forebrain membranes; from tissue; host or cells: rat forebrain membranes
Description: Displacement of 3H-L-689,560 binding to the strychnine-insensitive site of rat forebrain membranes. To be noted: 3H-L-689,560, rat forebrain membranes; read-out: concentration required to displace 50% of the specific binding (IC50). An excerpt:
(§1) The compounds useful in this invention potently and selectively block responses to NMDA and/or AMPA in a brain slice from rat cortex, and inhibit the binding of agonists and antagonists to the strychnine-insensitive site present on the NMDA receptor and/or AMPA binding to rat forebrain membranes.
The ability of test compounds to displace ^3 H-L-689,560 (trans-2-carboxy-5,7-dichloro-4-phenylaminocarbonylamino-1,2,3,4-tetrahydroquinoline) binding to the strychnine-insensitive site present on the NMDA receptor of rat forebrain membranes can be determined by the method of Grimwood et al., Proceedings of The British Pharmacological Society, July 1991, Abstract C78.
Background: In a radioligand displacement assay an active substance lowers the binding of a labelled ligand.

For a further experiment, the system named is NMDA receptors. Description: Cortical slice studies, responses to NMDA in rat cortical slice. The conditions noted are these: from righthand shift in NMDA concentration-response curves, read-out: apparent equilibrium constant (Kb) in response to NMDA. The format is cell-based.
Description: as §1
The effects of compounds of the invention on responses to NMDA and AMPA can be assessed using the rat cortical slice as described by Wong et al., Proc. Natl. Acad. Sci. USA, 1986, 83, 7104. The apparent equilibrium constant (Kb) is calculated from the righthand shift in the NMDA or AMPA concentration-response curves produced by the compound under test.

Some results are limits rather than exact numbers.

`O=c1[nH]n2cccc2c(O)c1-c1ccccc1` [Example 1, 4-Hydroxy-3-phenylpyrrolo[1,2-b]pyridazin-2(1H)-one]: the IC50 in experiment [1] is less than 50 µM. Moreover, the Kb in the experiment on NMDA receptors was less than 150 µM.

Source of the values: patent publication US5426106A, “Pyrrolo-pyridazinone derivatives” (Merck Sharp & Dohme Limited, priority 1992, dated 1995).
